“And” between values parts separate entries of the source, which are not always exact repeats. Equal values may be shown once.
Target: BoNT/E (Clostridium botulinum, UniProt Q00496)

Q: With IIIGNLGNEIDTQNRQIDRIMAKAKSKKR [Pep-52] as the sequence, how does the Relative product read?
A: 581 and 511
